According to publication PMC12250302, “Synthesis, Antimicrobial Activities, and Model of Action of Novel Tetralone Derivatives Containing Aminoguanidinium Moiety” (International Journal of Molecular Sciences, 2025):
In brackets after ≈: the same amount, converted by molar mass.

Key:
MRSA-2 [1] = format: cell-based, Staphylococcus aureus; settings: not told
Method: MRSA-2 bacterial precipitates in the logarithmic growth phase were collected by centrifugation, washed, and resuspended in PBS to a density of 1 × 10^6 CFU/mL. PI (10 μM, 40 μL) was added to a black 96-well plate along with 150 μL of bacterial suspension. After an incubation period of 30 min, fluorescence was detected at excitation wavelengths of 535 nm and emission wavelengths of 617 nm at 5 min intervals until a stable state was reached.

E. faecium ATCC 35667 = experiment: MIC and MBC testing, broth microdilution; format: cell-based, Enterococcus faecium; settings: Enterococcus faecium, ATCC35667, E. faecium ATCC 35667
Outline: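 Twofold serial dilutions of compound in DMSO were prepared in MH broth and mixed with log-phase bacteria, which had been diluted to 1 × 10^6 CFU/mL before mixing. Plates were incubated 18 h at 37 °C. MIC was the lowest concentration without visible growth, in triplicate.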

MRSA-2 [2] = experiment: Fluorescence microscopy assay (DAPI/PI); format: cell-based, Staphylococcus aureus; settings: vancomycin 4 µg/mL; 2D 4 and 8 μg/mL; 2 h
Method: MRSA-2 was cultivated to the logarithmic growth phase, then washed with PBS and resuspended in PBS until the concentration of bacterial suspension reached 1 × 10^8 CFU/mL. […] Thereafter, the samples were incubated with DAPI (10 μM) and PI (10 μM) in the dark for 15 min. The bacterial cells were then subjected to observation under a fluorescence microscope. DMSO served as the negative controls.

In the case of `[H]/N=C(\N)NN=C1CCCc2cc(OCCCCCCC)ccc21` [Compound 2D, (E)-2-(6-(heptyloxy)-3,4-dihydronaphthalen-1(2H)-ylidene)hydrazine-1-carboximidamide], the “PI fluorescence intensity (inner membrane permeability)” value (MRSA-2 [1]) is reported as “significantly enhanced”, the MIC (E. faecium ATCC 35667; 18 h, read-out: MIC) is reported as 2 µg/mL (≈ 6.32 µM) and the MBC (E. faecium ATCC 35667; read-out: MBC) is reported as 4 µg/mL (≈ 12.6 µM). The “PI red fluorescence (damaged membranes)” value (MRSA-2 [2]) was “a marked tendency to emit red fluorescence”.
